Measured values as given in patent US10703821B2, “Method for stimulating or enhancing proliferation of cells by activating the mucin 1 (MUC1) receptor” (MINERVA BIOTECHNOLOGIES CORPORATION, priority 2005, dated 2020).

System: PSMGFR region of MUC1
Experiment: western blot of ERK2 phosphorylation, competition with anti-PSMGFR
Type: cell-based
Excerpt: FIG. 6 is a western blot of a competition experiment in which small molecules that bind to the PSMGFR region of MUC1 compete with anti-PSMGFR for binding to the site. […] The chemical formula for the competitor compound MN 9 referred to in this figure is […]

With O=C(c1ccc2ccccc2c1)N1CCc2c([nH]c3ccccc23)C1c1ccc(C(F)(F)F)cc1 (centres unmarked) [MN 9] the “binding of anti-PSMGFR to the PSMGFR site in competition” value (in the presence of competitor small molecule) was “the antibody does not bind” and the ERK2 phosphorylation (in the presence of competitor small molecule and anti-PSMGFR) was “ERK2 phosphorylation is inhibited”.
